Results as given in patent US9676752B2, “Imidazolidine-2,4-dione derivatives” (IPSEN PHARMA S.A.S., priority 2013, dated 2017).
≈ marks a conversion by molar mass, not a printed value.

Experiments:
[1] = system: LNCaP; experiment: Anti-proliferative activity on LNCaP in complete medium; type: cell-based; settings: Homo sapiens, 144 h incubation, Cell-Titer-Glow
Method: 1. Anti-Proliferative Activity on LNCaP in Complete Medium
The anti-proliferative activity of the compounds of the present invention is determined on LNCaP in complete medium by applying the following experimental procedure:
The LNCaP cell type (ATCC, 1740) originates from a prostate carcinoma. This line expresses the androgen receptor and is hormone-dependent.
(§1) Maintenance of the LNCaP line is carried out in complete culture medium: RPMI, 10% of fetal calf serum, 2 mM glutamine, 100 U/ml penicillin, 0.1 mg/ml of streptomycin and 0.01M HEPES, 1 mM sodium pyruvate, 40% of D-glucose. • Seeding the plates: The LNCaP line is seeded at 20,000 cells/well in 90 μl of complete medium in 96-well plates coated with poly-D-lysine (Biocoat, Costar). • Treatment of the cells: 24 h after the seeding, the cells are treated with 10 μl/well of compound diluted in the culture medium. The concentrations used are the following: 1 nM/10/30/100/300/1000/3000/10,000 nM. The cells are incubated for 144 h at 37° C., 5% CO2. • Reading: After incubation for 6 days, cell proliferation was determined by Cell-Titer-Glow (CTG) Luminescent Cell Viability Assay. • Results: The experiments are carried out in duplicate and the best compounds are tested twice. A concentration value inhibiting the cell proliferation by 50% (IC50) is calculated.

[2] = system: DU145; experiment: Anti-proliferative activity on DU145 in complete medium; type: cell-based; settings: Homo sapiens, DU-145, 144 h incubation, Cell-Titer-Glow, line does not express androgen receptor
Method: 2. Anti-Proliferative Activity on DU145 in Complete Medium
as §1, with “It is used to evaluate the selectivity” for “Maintenance”, “compounds for androgen receptor expressing cells. No activity of the compounds is expected. • The cells of the DU145” for “LNCaP”, “(ATCC HTB-81) are” for “is carried out in complete culture medium: RPMI, 10% of fetal calf serum, 2 mM glutamine, 100 U/ml penicillin, 0.1 mg/ml of streptomycin and 0.01M HEPES, 1 mM sodium pyruvate, 40% of D-glucose. • Seeding the plates: The LNCaP line is”, “800” for “20,000”, “Assay” for “Assay.”

[3] = target: T1, androgen receptor (Homo sapiens, UniProt P10275, T878A); experiment: Measurement of protein expression of the androgen receptor in LNCaP cells (AR ELISA); type: cell-based; settings: 3 days treatment, whole cell protein, AR ELISA kit; read-out: IC50 AR destruction in LNCaP
T1 construct: This line expresses the androgen receptor and is hormone-dependent; endogenous in cells; host or cells: LNCaP (ATCC, 1740)
T1 sequence (P10275 1-920 T878A): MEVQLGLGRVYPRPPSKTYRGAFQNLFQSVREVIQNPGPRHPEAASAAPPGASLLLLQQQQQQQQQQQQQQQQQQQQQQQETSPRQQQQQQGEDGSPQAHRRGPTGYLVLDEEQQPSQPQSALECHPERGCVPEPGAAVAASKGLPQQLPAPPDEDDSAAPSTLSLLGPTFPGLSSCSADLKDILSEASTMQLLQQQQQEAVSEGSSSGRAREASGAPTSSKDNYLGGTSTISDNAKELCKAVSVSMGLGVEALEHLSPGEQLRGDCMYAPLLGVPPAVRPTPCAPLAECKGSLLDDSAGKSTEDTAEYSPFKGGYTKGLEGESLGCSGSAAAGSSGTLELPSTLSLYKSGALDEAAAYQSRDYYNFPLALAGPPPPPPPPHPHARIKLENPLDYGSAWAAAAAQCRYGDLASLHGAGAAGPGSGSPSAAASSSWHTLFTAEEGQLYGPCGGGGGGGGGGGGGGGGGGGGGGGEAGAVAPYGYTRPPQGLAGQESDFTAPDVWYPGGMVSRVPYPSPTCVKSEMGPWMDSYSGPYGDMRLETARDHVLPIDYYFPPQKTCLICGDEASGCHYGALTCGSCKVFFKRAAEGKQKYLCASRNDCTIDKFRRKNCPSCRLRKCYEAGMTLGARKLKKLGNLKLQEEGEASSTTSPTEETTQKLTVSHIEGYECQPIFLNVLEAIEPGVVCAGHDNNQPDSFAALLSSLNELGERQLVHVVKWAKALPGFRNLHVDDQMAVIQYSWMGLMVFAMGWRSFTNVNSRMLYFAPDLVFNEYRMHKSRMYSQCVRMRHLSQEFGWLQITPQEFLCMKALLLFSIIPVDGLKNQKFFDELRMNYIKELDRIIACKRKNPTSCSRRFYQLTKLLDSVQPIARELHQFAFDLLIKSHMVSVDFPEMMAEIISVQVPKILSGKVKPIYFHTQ
Method: Measurement of Protein Expression of the Androgen Receptor
The cells of the LNCaP line are seeded at a rate of 2.5 million of cells per 10 cm Petri dish and maintained in 8 ml RPMI-1640 for 4 days. After 4 days incubation, 4 ml of medium were removed from the Petri dish and 5 ml fresh medium was added carefully. 1 ml of compounds 10-fold diluted in complete medium at concentrations from 3×10^-6 M to 10^-8 M. Cells were treated with the compounds for additional 3 days. The whole cell protein was extracted by Nuclear Extract kit and quantitated by the Bradford Protein Assay. The effect of compounds on AR levels in LNCaP cells was then determined by an AR ELISA kit.

[4] = Evaluation of solubility in potassium phosphate buffer pH 7.4; type: physicochemical; settings: aqueous buffer, kinetic from dmso stock; 100 mM potassium phosphate buffer pH 7.4, target 10 μM, 0.1% DMSO, 1 hour room temperature, LC-MS/MS
Method: Evaluation of Solubility:
Test compounds were prepared as stock solutions at […] in DMSO. The stock solutions were diluted, in duplicate, into 100 mM potassium phosphate buffer (pH 7.4) to a target concentration of 10 μM with a final DMSO concentration of 0.1%. The solutions were shaken at 1000 rpm for 1 hour at room temperature followed by centrifugation for 10 minutes at 1200 rpm to precipitate un-dissolved particles. The supernatants were transferred to new tubes and the samples were further prepared as follows: • Undiluted: 5 μL of supernatant to 95 μL of ACN containing internal standard (IS) • 1:10 diluted: 10 μL of the supernatant into 90 μL K-buffer, mix, then transfer 5 μL of 1:10 diluted samples to 95 μL ACN containing IS • 1:100 diluted: 10 μL of the supernatant into 990 μL K-buffer, mix, then transfer 5 μL of 1:100 diluted samples to 95 μL of ACN containing IS
Samples (undiluted, 1:10 diluted, and 1:100 diluted) along with the standards were analyzed by LC-MS/MS.

[5] = system: VCaP; experiment: Anti-proliferative activity on VCaP in complete medium; type: cell-based; settings: Homo sapiens, 216 h, Cell-Titer-Glow, reading after 9 days
Method: 3. Anti-Proliferative Activity on VCaP in Complete Medium • The cells of the VCaP line (ATCC CRL-2876) are seeded at 20000 cells/well in 90 μl of complete medium in 96-well plates coated with poly-D-lysine (Biocoat, Costar). • Treatment of the cells: 24 h after the seeding, the cells are treated with 10 μl/well of compound diluted in the culture medium. The concentrations used are the following: 1 nM/10/30/100/300/1000/3000/10,000 nM. The cells are incubated for […] at 37° C., 5% CO2. • Reading: After incubation for […], cell proliferation was determined by Cell-Titer-Glow (CTG) Luminescent Cell Viability Assay • Results: The experiments are carried out in duplicate and the best compounds are tested twice. A concentration value inhibiting the cell proliferation by 50% (IC50) is calculated.

[6] = system: human prostate cancer cells; settings: agonist activity in place of antagonist activity; cited from earlier work

Row | Structure (SMILES) | IC50 [1] [µM] | IC50 [2] [µM] | DC50 [3] [µM] | solubility at 1 h [4] [µM] | IC50 [5] [µM] | effect on growth of human prostate cancer cells in culture [6]
1 | CC1(C)C(=O)N(c2ccc(C#N)c(C(F)(F)F)c2)C(=O)N1C/C=C\CN1C(=O)N(c2ccc(S(C)(=O)=O)c(C(F)(F)F)c2)C(=O)C1(C)C [Example 1, (Z)-4-(3-(4-(5,5-dimethyl-3-(4-(methylsulfonyl)-3-(trifluoromethyl)phenyl)-2,4-dioxoimidazolidin-1-yl)but-2-en-1-yl)-4,4-dimethyl-2,5-dioxoimidazolidin-1-yl)-2-(trifluoromethyl)benzonitrile] | 0.313 | > 10 | 0.123 | 2.66 (≈ 1.86 µg/mL) | 0.551 | 
2 | CC1(C)C(=O)N(c2ccc(S(C)(=O)=O)c(C(F)(F)F)c2)C(=O)N1C/C=C\CN1C(=O)N(c2cnc(C#N)c(C(F)(F)F)c2)C(=O)C1(C)C [Example 2, (Z)-5-(3-(4-(5,5-dimethyl-3-(4-(methylsulfonyl)-3-(trifluoromethyl)phenyl)-2,4-dioxoimidazolidin-1-yl)but-2-en-1-yl)-4,4-dimethyl-2,5-dioxoimidazolidin-1-yl)-3-(trifluoromethyl)picolinonitrile] | 1.59 | > 10 | 0.946 | 0.14 (≈ 0.0981 µg/mL) | 1.05 | 
3 | CC1(C)C(=O)N(c2ccc(C#N)c(C(F)(F)F)c2)C(=O)N1C/C=C\CN1CC(=O)N(c2ccc(S(C)(=O)=O)c(C(F)(F)F)c2)C1=O [Example 3, (Z)-4-(4,4-dimethyl-3-(4-(3-(4-(methylsulfonyl)-3-(trifluoromethyl)phenyl)-2,4-dioxoimidazolidin-1-yl)but-2-en-1-yl)-2,5-dioxoimidazolidin-1-yl)-2-(trifluoromethyl)benzonitrile] | 1.12 | > 10 |  | 0.53 (≈ 0.356 µg/mL) |  | 
4 | CC1(C)NC(=O)N(c2ccc([N+](=O)[O-])c(C(F)(F)F)c2)C1=O [nilutamide] |  |  |  |  |  | capable of stimulating the growth
